Reference: US8796256B2 (Janssen Pharmaceutica NV, priority 2010, dated 2014)

Biological target: T1, ERR1 (also known as ERR-α or ERR-1) (Homo sapiens, UniProt P11474)
T1 sequence (P11474 193-421 limits assumed): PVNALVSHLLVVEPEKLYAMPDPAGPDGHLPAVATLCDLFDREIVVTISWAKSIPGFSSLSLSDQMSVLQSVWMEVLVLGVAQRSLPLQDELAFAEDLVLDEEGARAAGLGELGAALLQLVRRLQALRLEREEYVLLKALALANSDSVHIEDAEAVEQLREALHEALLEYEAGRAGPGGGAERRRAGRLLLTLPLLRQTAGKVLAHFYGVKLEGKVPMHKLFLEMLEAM
Test: TR-FRET assay (disruption of co-activator peptide binding to ERR1 LBD)
Assay type: biochemical
Settings: 6 nM 6His-ERR1LBD, 6 nM GST-SRC-2 peptide; average of 3 independent experiments
Method in brief: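 His-tagged ERR1 ligand-binding domain and GST-labelled SRC-2 peptide, each 6 nM, equilibrated at 25° C for 4-18 h in Tris pH 8/Hepes/KCl/DTT/delipidated BSA buffer. Compound-induced loss of co-activator binding read as Eu cryptate→XL665 energy transfer; values from hyperbolic curve fits averaged over 3 independent runs.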

Compound | EC50
O=C1S/C(=C\c2ccc3c(cnn3Cc3ccc(Cl)cc3C(F)(F)F)c2)C(=O)N1C[C@H](O)CN1CC[C@@H](F)C1 [Compound 294, (5Z)-5-({1-[4-Chloro-2-(trifluoromethyl)benzyl]-1H-indazol-5-yl}methylidene)-3-{(2R)-3-[(3R)-3-fluoropyrrolidin-1-yl]-2-hydroxypropyl}-1,3-thiazolidine-2,4-dione] | 63 nM
COc1ccc(Cn2ncc3cc(/C=C4\SC(=O)N(C[C@@H]5CCCN5C)C4=O)ccc32)c(C(F)(F)F)c1 [Compound 23, (5Z)-5-({1-[4-Methoxy-2-(trifluoromethyl)benzyl]-1H-indazol-5-yl}methylidene)-3-{[(2S)-1-methylpyrrolidin-2-yl]methyl}-1,3-thiazolidine-2,4-dione] | 45 nM
O=C1S/C(=C\c2ccc3c(cnn3Cc3ccc(Cl)cc3C(F)(F)F)c2)C(=O)N1[C@H]1CCNC[C@@H]1F [Compound 382, (5Z)-5-({1-[4-Chloro-2-(trifluoromethyl)benzyl]-1H-indazol-5-yl}methylidene)-3-[(3S,4S)-3-fluoropiperidin-4-yl]-1,3-thiazolidine-2,4-dione] | 11 nM
O=C(CN1C(=O)S/C(=C\c2ccc3c(ccn3Cc3ccc(C(F)(F)F)cc3C(F)(F)F)c2)C1=O)N1CCOCC1 [Compound 241, (5Z)-5-[(1-{[2,4-Bis(trifluoromethyl)phenyl]methyl}-1H-indol-5-yl)methylidene]-3-(2-morpholin-4-yl-2-oxoethyl)-1,3-thiazolidine-2,4-dione] | 100 nM
O=C1S/C(=C\c2ccc3c(cnn3Cc3ccc(Cl)cc3C(F)(F)F)c2)C(=O)N1C[C@@H](O)CN1CCCC1 [Compound 292, (5Z)-5-({1-[4-Chloro-2-(trifluoromethyl)benzyl]-1H-indazol-5-yl}methylidene)-3-[(2S)-2-hydroxy-3-pyrrolidin-1-ylpropyl]-1,3-thiazolidine-2,4-dione] | 49 nM
NC1(CN2C(=O)S/C(=C\c3ccc4c(cnn4Cc4ccc(C(F)(F)F)cc4C(F)(F)F)c3)C2=O)CCOCC1 [Compound 310, (5Z)-3-[(4-Aminotetrahydro-2H-pyran-4-yl)methyl]-5-({1-[2,4-bis(trifluoromethyl)benzyl]-1H-indazol-5-yl}methylidene)-1,3-thiazolidine-2,4-dione] | 86 nM
CN1CCC[C@H]1CN1C(=O)S/C(=C\c2ccc3c(c2)c(Cl)nn3Cc2ccc(Cl)cc2C(F)(F)F)C1=O [Compound 301, (5Z)-5-({3-Chloro-1-[4-chloro-2-(trifluoromethyl)benzyl]-1H-indazol-5-yl}methylidene)-3-{[(2S)-1-methylpyrrolidin-2-yl]methyl}-1,3-thiazolidine-2,4-dione] | 15 nM
COCCN1C[C@H](F)C[C@H]1CN1C(=O)S/C(=C\c2ccc3c(cnn3Cc3ccc(Cl)cc3C(F)(F)F)c2)C1=O [Compound 190, (5Z)-5-({1-[4-Chloro-2-(trifluoromethyl)benzyl]-1H-indazol-5-yl}methylidene)-3-{[(2S,4R)-4-fluoro-1-(2-methoxyethyl)pyrrolidin-2-yl]methyl}-1,3-thiazolidine-2,4-dione] | 410 nM
O=C1S/C(=C\c2ccc3c(c2)c(Cl)nn3Cc2ccc(Cl)cc2C(F)(F)F)C(=O)N1CCN1CCCC1 [Compound 300, (5Z)-5-({3-Chloro-1-[4-chloro-2-(trifluoromethyl)benzyl]-1H-indazol-5-yl}methylidene)-3-(2-pyrrolidin-1-ylethyl)-1,3-thiazolidine-2,4-dione] | 7 nM
O=C1CNCCC1N1C(=O)S/C(=C\c2ccc3c(cnn3Cc3ccc(Cl)cc3C(F)(F)F)c2)C1=O (stereo not shown) [Compound 341, (5Z)-5-({1-[4-Chloro-2-(trifluoromethyl)benzyl]-1H-indazol-5-yl}methylidene)-3-(3-oxopiperidin-4-yl)-1,3-thiazolidine-2,4-dione] | 39 nM
CCOC(=O)C1CCC(N2C(=O)S/C(=C\c3ccc4c(c3)nnn4Cc3ccc(Cl)cc3C(F)(F)F)C2=O)CC1 (stereo not shown) [Compound 261, Ethyl 4-[(5Z)-5-({1-[4-chloro-2-(trifluoromethyl)benzyl]-1H-benzotriazol-5-yl}methylidene)-2,4-dioxo-1,3-thiazolidin-3-yl]cyclohexanecarboxylate] | 124 nM
COCCN1CCO[C@H](CN2C(=O)S/C(=C\c3ccc4c(cnn4Cc4ccc(Cl)cc4C(F)(F)F)c3)C2=O)C1 [Compound 189, (5Z)-5-({1-[4-Chloro-2-(trifluoromethyl)benzyl]-1H-indazol-5-yl}methylidene)-3-{[(2S)-4-(2-methoxyethyl)morpholin-2-yl]methyl}-1,3-thiazolidine-2,4-dione] | 160 nM
O=C1S/C(=C\c2ccc3c(cnn3Cc3ccc(Cl)cc3C(F)(F)F)c2)C(=O)N1Cc1cncs1 [Compound 94, (5Z)-5-({1-[4-Chloro-2-(trifluoromethyl)benzyl]-1H-indazol-5-yl}methylidene)-3-(1,3-thiazol-5-ylmethyl)-1,3-thiazolidine-2,4-dione] | ≥ 10000 nM
Cn1cnc(CC(C(=O)O)N2C(=O)S/C(=C\c3ccc4c(cnn4Cc4ccc(Cl)cc4C(F)(F)F)c3)C2=O)c1 (stereo not shown) [Compound 223, 2-[(5Z)-5-({1-[4-Chloro-2-(trifluoromethyl)benzyl]-1H-indazol-5-yl}methylidene)-2,4-dioxo-1,3-thiazolidin-3-yl]-3-(1-methyl-1H-imidazol-4-yl)propanoicacid] | 55 nM
O=C1OCCN1CCN1C(=O)S/C(=C\c2ccc3c(cnn3Cc3ccc(Cl)cc3C(F)(F)F)c2)C1=O [Compound 131, (5Z)-5-({1-[4-Chloro-2-(trifluoromethyl)benzyl]-1H-indazol-5-yl}methylidene)-3-[2-(2-oxo-1,3-oxazolidin-3-yl)ethyl]-1,3-thiazolidine-2,4-dione] | 5 nM
CCN1C[C@@H](F)[C@H](N2C(=O)S/C(=C\c3ccc4c(cnn4Cc4ccc(Cl)cc4C(F)(F)F)c3)C2=O)C1 (relative stereo) [Compound 320, (5Z)-5-({1-[4-Chloro-2-(trifluoromethyl)benzyl]-1H-indazol-5-yl}methylidene)-3-[trans-1-ethyl-4-fluoropyrrolidin-3-yl]-1,3-thiazolidine-2,4-dione] | 31 nM
O=C1S/C(=C\c2ccc3c(cnn3Cc3ccc(Cl)cc3C(F)(F)F)c2)C(=O)N1CCN1CC(O)C1 [Compound 115, (5Z)-5-({1-[4-Chloro-2-(trifluoromethyl)benzyl]-1H-indazol-5-yl}methylidene)-3-[2-(3-hydroxyazetidin-1-yl)ethyl]-1,3-thiazolidine-2,4-dione] | 130 nM
CC(C)N1CC[C@@H](N2C(=O)S/C(=C\c3ccc4c(cnn4Cc4ccc(Cl)cc4C(F)(F)F)c3)C2=O)[C@H](F)C1 [Compound 387, (5Z)-5-({1-[4-Chloro-2-(trifluoromethyl)benzyl]-1H-indazol-5-yl}methylidene)-3-[(3R,4R)-3-fluoro-1-(1-methylethyl)piperidin-4-yl]-1,3-thiazolidine-2,4-dione] | 123 nM
O=C1S/C(=C\c2ccc3c(cnn3Cc3ccc(Cl)cc3C(F)(F)F)c2)C(=O)N1Cc1csc(NS(=O)(=O)C(F)(F)F)n1 [Compound 414, N-(4-{[(5Z)-5-({1-[4-Chloro-2-(trifluoromethyl)benzyl]-1H-indazol-5-yl}methylidene)-2,4-dioxo-1,3-thiazolidin-3-yl]methyl}-1,3-thiazol-2-yl)-1,1,1-trifluoromethanesulfonamide] | 109 nM
O=C1S/C(=C\c2ccc3c(cnn3Cc3ccc(Cl)cc3C(F)(F)F)c2)C(=O)N1[C@@H]1CCOC1 [Compound 125, (5Z)-5-({1-[4-Chloro-2-(trifluoromethyl)benzyl]-1H-indazol-5-yl}methylidene)-3-[(3R)-tetrahydrofuran-3-yl]-1,3-thiazolidine-2,4-dione] | 47 nM
NCCN1C(=O)S/C(=C\c2ccc3c(cnn3Cc3ccc(Cl)cc3C(F)(F)F)c2)C1=O [Compound 49, 3-(2-Aminoethyl)-(5Z)-5-({1-[4-chloro-2-(trifluoromethyl)benzyl]-1H-indazol-5-yl}methylidene)-1,3-thiazolidine-2,4-dione] | 25 nM
NC1CCCC(N2C(=O)S/C(=C\c3ccc4c(cnn4Cc4ccc(Cl)cc4C(F)(F)F)c3)C2=O)C1 (stereo not shown) [Compound 76, (5Z)-3-(3-Aminocyclohexyl)-5-({1-[4-chloro-2-(trifluoromethyl)benzyl]-1H-indazol-5-yl}methylidene)-1,3-thiazolidine-2,4-dione] | 14 nM
O=C1S/C(=C\c2ccc3c(cnn3Cc3ccc(Cl)cc3C(F)(F)F)c2)C(=O)N1CCC1CCNCC1 [Compound 164, (5Z)-5-({1-[4-Chloro-2-(trifluoromethyl)benzyl]-1H-indazol-5-yl}methylidene)-3-(2-piperidin-4-ylethyl)-1,3-thiazolidine-2,4-dione] | 47 nM
O=C1S/C(=C\c2ccc3c(cnn3Cc3ccc(Cl)cc3C(F)(F)F)c2)C(=O)N1C[C@@H]1C[C@@H](F)CN1 [Compound 184, (5Z)-5-({1-[4-Chloro-2-(trifluoromethyl)benzyl]-1H-indazol-5-yl}methylidene)-3-{[(2S,4R)-4-fluoropyrrolidin-2-yl]methyl}-1,3-thiazolidine-2,4-dione] | 140 nM
CN(C)C[C@H](O)CN1C(=O)S/C(=C\c2ccc3c(cnn3Cc3ccc(Cl)cc3C(F)(F)F)c2)C1=O [Compound 293, (5Z)-5-({1-[4-Chloro-2-(trifluoromethyl)benzyl]-1H-indazol-5-yl}methylidene)-3-[(2S)-3-(dimethylamino)-2-hydroxypropyl]-1,3-thiazolidine-2,4-dione] | 35 nM
